Source: patent US4543353A, “Ester and amide derivatives of 13,14-didehydro prostaglandins” (Farmitalia Carlo Erba S.p.A., priority 1981, dated 1985)

How the values were obtained:
[1] = duration of activity when administered orally; type: in vivo
hamster = assay: luteolytic activity in the hamster after subcutaneous injection; type: in vivo; settings: Mesocricetus auratus, sc, according to A. B. Labhsetwar, Nature, vol. 230, page 528 (1971)
Protocol: In this application, the compounds are administered either by intravenous infusion at a dose of approximately 0.01-0.05 μg/kg/minute until the end of labor, or by mouth at a single or multiple doses from about 0.05 mg to about 5 mg pro dose. […] For example, the luteolytic activity of the compound 5c-9α,11α,15(S)-trihydroxy-18,19,20-trinor-17-cyclohexyl-prost-5-en-13-ynoic acid 2-ethoxy-ethyl ester, expressed as ED50 value and evaluated in the hamster after subcutaneous injection [according to A. B. LABHSETWAR, Nature, vol.

[2] = orientative acute toxicity, LD50, single oral administration; settings: mouse, in vivo, mice, nine hours food deprived, assessed on the seventh day
Protocol: The evaluation of the toxicity (as orientative acute toxicity, i.e. LD50) was carried out, e.g., as follows: nine hours food deprived mice were treated orally with single administration of increasing doses, then housed and normally fed; the LD50 was assessed on the seventh day after the treatment.

SMILES | activity duration compared with the parent acid or alkyl ester derivatives [1] | ED50 (hamster) [mg/kg] | LD50 at 168 h [2] [mg/kg]
CCOCCOC(=O)CCC/C=C\C[C@@H]1[C@@H](C#C[C@@H](O)CC2CCCCC2)[C@H](O)C[C@@H]1O [5c-9α,11α,15(S)-trihydroxy-17,18,19,20-tetranor-16-cyclohexyl-prost-5-en-13-ynoic acid 2-ethoxy-ethyl ester] | more lasting activity |  | 
CCOCCOC(=O)CCC/C=C\C[C@@H]1[C@@H](C#C[C@@H](O)CCC2CCCCC2)[C@H](O)C[C@@H]1O [5c-9α,11α,15(S)-trihydroxy-18,19,20-trinor-17-cyclohexyl-prost-5-en-13-ynoic acid 2-ethoxy-ethyl ester] |  | 0.005 | 
COC(=O)CCC/C=C\C[C@@H]1[C@@H](C#C[C@@H](O)CCC2CCCCC2)[C@H](O)C[C@@H]1O [5c-9α,11α,15(S)-trihydroxy-18,19,20-trinor-17-cyclohexyl-prost-5-en-13-ynoic acid methyl ester, reference compound] |  | 0.009 | 
CCOCCOC(=O)CCC/C=C\C[C@@H]1[C@@H](C#C[C@@H](O)CCCCC2CCCCC2)[C@H](O)C[C@@H]1O [5c-9α,11α,15(S)-trihydroxy-20-nor-19-cyclohexyl-prost-5-en-13-ynoic acid 2-ethoxy-ethyl ester] | more lasting activity |  | > 3000
